Where two headings read alike, the source gives them in different places.
What was measured:
Assay type in all cases: cell-based
[1] = tested on: human ovary cancer cells A2780; assay: SRB anti-proliferative assay, A2780; conditions: read-out: Anti-proliferative IC50, A2780
Procedure: (§1) The present example evaluated the anti-tumor activity of the molecules provided by the present invention. The present example mainly used a method with SRB (sulforhodamine B) dying, in which proteins in the cell were stained with SRB dye to determine protein content in the cell so as to characterize cell growth density. Firstly, the test compound was formulated into a stock solution (10 mM), which was stored at 4° C. in a refrigerator. Prior to beginning the assay, the stock solution was diluted with DMSO into a series of different concentrations. The required concentrations were obtained by diluting with complete growth medium. Well growing cells were seeded in a 96-well plate (5000 cells/well, 100 uL) and cultured in an incubator at 37° C., 5% CO2, and 90% RH. 24 h later, the prepared compound solution (100 μL) was slowly added to cell solution in the 96-well plate, and the well with DMSO (final concentration 0.5%) instead of the drug was used as a drug free control. The plate was incubated for 48 h. In addition, a day 0 plate that was drug free was directly detected after cell seeded in the plate for 24 h. The 96-well plate was taken out and added with trichloroacetic acid (50 μL, final concentration 10%). The plate was incubated at 4° C. for 1 h to fix the cells.
(§2) The plate was washed with ultrapure water and air-dried. The plate was then stained with SRB dye (0.4% in 1% acetic acid, 100 μL) for 30 min at room temperature. The plate was then washed with 1% acetic acid and then air-dried. A Tris base solution (100 μL, 10 mM, pH10.4) was added, after which the plate was gently shaken for 1 h on an orbital shaker to ensure that the dyes were completed dissolved. The optical density (OD) was recorded on a TECAN Infinite M200 Pro multimode reader at 515 nm. The cell growth (% of control)=(OD value of wells added with drug−mean OD value of Day 0 plate)/(OD value of DMSO drug-free control well−mean OD value of Day 0 plate)*100.

[2] = tested on: human colon cancer cells HCT8; assay: SRB anti-proliferative assay, HCT-8; conditions: read-out: Anti-proliferative IC50, HCT-8
Procedure: as §1, §2

[3] = tested on: human lung cancer cells A549; assay: SRB anti-proliferative assay, A549; conditions: read-out: Anti-proliferative IC50, A549
Procedure: as §1, §2

[4] = tested on: human breast cancer cells MCF7; assay: SRB anti-proliferative assay, MCF-7; conditions: read-out: Anti-proliferative IC50, MCF-7
Procedure: as §1, §2

[5] = tested on: human nasopharyngeal carcinoma cells CNE2; assay: SRB anti-proliferative assay, CNE2; conditions: read-out: Anti-proliferative IC50, CNE2
Procedure: as §1, §2

[6] = tested on: human colon cancer cells SW480; assay: SRB anti-proliferative assay, SW480; conditions: read-out: Anti-proliferative IC50, SW480
Procedure: as §1, §2

[7] = tested on: human liver cancer cell HepG2; assay: SRB anti-proliferative assay, HepG2; conditions: read-out: Anti-proliferative IC50, HepG2
Procedure: as §1, §2

[8] = tested on: Paclitaxel-resistant human ovarian carcinoma cell A2780/TAX; assay: SRB anti-proliferative assay, drug-resistant A2780/TAX; conditions: read-out: Anti-proliferative IC50, A2780/TAX
Procedure: as §1, §2
(§3) We also evaluated the anti-proliferation activities of selected compounds against drug-resistant cancer cell lines.

[9] = tested on: incristine resistant human ileocecum carcinoma cell HCT-8/VCT; assay: SRB anti-proliferative assay, drug-resistant HCT-8/VCT; conditions: HCT8/VCT, read-out: Anti-proliferative IC50, HCT-8/VCT
Procedure: as §1, §2, §3

[10] = tested on: cis-platinum resistant human lung cancer cell A549/CDDP; assay: SRB anti-proliferative assay, drug-resistant A549/CDDP; conditions: read-out: Anti-proliferative IC50, A549/CDDP
Procedure: as §1, §2, §3

[11] = tested on: doxorubicin resistant breast cancer cell MCF-7/DOX; assay: SRB anti-proliferative assay, drug-resistant MCF-7/DOX; conditions: Homo sapiens, MCF7-DOX, read-out: Anti-proliferative IC50, MCF-7/DOX
Procedure: as §1, §2, §3

[12] = paclitaxel-resistant A2780/TAX, SRB
[13] = vincristine-resistant HCT-8/VCT, SRB
[14] = cis-platinum resistant A549/CDDP, SRB
[15] = doxorubicin resistant MCF-7/DOX, SRB

Row | Structure (SMILES) | IC50 ([1]; A2780, SRB, 48 h) [nM] | IC50 ([2]; HCT-8, SRB, 48 h) [nM] | IC50 ([3]; A549, SRB, 48 h) [nM] | IC50 ([4]; MCF7, MCF-7, SRB, 48 h) [nM] | IC50 ([5]; CNE-2, CNE2, SRB, 48 h) [nM] | IC50 ([6]; SW480, SRB, 48 h) [nM] | IC50 ([7]; HepG2, SRB, 48 h) [nM] | IC50 [8, 12] [nM] | IC50 [9, 13] [nM] | IC50 [10, 14] [nM] | IC50 [11, 15] [nM] | other results
1 | N#Cc1ccc(/C=C/C(=O)c2ccccc2-c2cccc(F)c2)cc1 [compound 14, (E)-1-(3′-Fluoro[1,1′-biphenyl]-2-yl)-3-(4-cyanophenyl)prop-2-en-1-one] | 122 | 102 | 88 | 128 | 61 | 43 | 65 | 375 | 386 | 468 | 132 | –
2 | O=C(/C=C/c1ccc(N(c2ccccc2)c2ccccc2)cc1)c1ccccc1-c1cccc(F)c1 [compound 17, (E)-1-(3′-Fluoro[1,1′-biphenyl]-2-yl)-3-(4-(diphenylamino)phenyl)prop-2-en-1-one] | 133 | 137 | 74 | 123 | 43 | 51 | 93 | 158 | 176 | 165 | 66 | –
3 | COc1ccc(/C=C/C(=O)c2ccccc2-c2cccc(F)c2)cc1OP(=O)(O)O [compound 10, (E)-(5-(3-(3′-Fluoro[1,1′-biphenyl]-2-yl)-3-oxoprop-1-en-1-yl)-2-Methoxyphenol) phosphate ester] | – | – | – | – | – | – | – | – | – | – | – | IC50 ([1]; A2780, 48 h): 59 nM; IC50 ([2]; HCT-8, 48 h): 61 nM; IC50 ([3]; A549, 48 h): 10 nM; IC50 ([4]; MCF7, 48 h): 51 nM; IC50 ([5]; CNE-2, 48 h): 30 nM; IC50 ([6]; SW480, 48 h): 9 nM; IC50 ([7]; HepG2, 48 h): 10 nM; IC50 ([8]; A2780/TAX): 92 nM; IC50 [9]: 115 nM; IC50 ([10]; A549/CDDP): 102 nM; IC50 [11]: 10 nM
4 | O=C(O)c1cccc(/C=C/C(=O)c2ccccc2-c2cccc(F)c2)c1 [compound 20] | 35 | 28 | 45 | 79 | 21 | 49 | 29 | 120 | 119 | 221 | 54 | –
5 | CN(C)c1ccc(/C=C/C(=O)c2ccccc2-c2cccc(F)c2)cc1 [compound 7, (E)-3-(4-(Dimethylamino)phenyl)-1-(3′-fluoro[1,1′-biphenyl]-2-yl)prop-2-en-1-one] | 73 | 92 | 48 | 48 | 25 | 44 | 37 | 55 | 86 | 68 | 32 | –
6 | COc1ccc(/C=C/C(=O)c2ccccc2-c2ccc(OC)c(OC)c2OC)cc1B(O)O [compound 8] | 98 | 118 | 64 | 114 | 86 | 74 | 78 | 234 | 156 | 247 | 75 | –

— patent US9988405B2, “O-phenyl chalcone compounds and uses thereof” (Neopanora Bio-technology (Zhuhai) Ltd., priority 2014, dated 2018)
